“Also recorded” adds a separate entry of the source.
Columns and labels:
[1] = tested on: gluconeogenesis in rat liver; settings: HCA-treated rats; cited from earlier work
[2] = molecular target: T1, citrate lyase (Homo sapiens, UniProt P53396); settings: cited from earlier work
T1 sequence (P53396 1-1101): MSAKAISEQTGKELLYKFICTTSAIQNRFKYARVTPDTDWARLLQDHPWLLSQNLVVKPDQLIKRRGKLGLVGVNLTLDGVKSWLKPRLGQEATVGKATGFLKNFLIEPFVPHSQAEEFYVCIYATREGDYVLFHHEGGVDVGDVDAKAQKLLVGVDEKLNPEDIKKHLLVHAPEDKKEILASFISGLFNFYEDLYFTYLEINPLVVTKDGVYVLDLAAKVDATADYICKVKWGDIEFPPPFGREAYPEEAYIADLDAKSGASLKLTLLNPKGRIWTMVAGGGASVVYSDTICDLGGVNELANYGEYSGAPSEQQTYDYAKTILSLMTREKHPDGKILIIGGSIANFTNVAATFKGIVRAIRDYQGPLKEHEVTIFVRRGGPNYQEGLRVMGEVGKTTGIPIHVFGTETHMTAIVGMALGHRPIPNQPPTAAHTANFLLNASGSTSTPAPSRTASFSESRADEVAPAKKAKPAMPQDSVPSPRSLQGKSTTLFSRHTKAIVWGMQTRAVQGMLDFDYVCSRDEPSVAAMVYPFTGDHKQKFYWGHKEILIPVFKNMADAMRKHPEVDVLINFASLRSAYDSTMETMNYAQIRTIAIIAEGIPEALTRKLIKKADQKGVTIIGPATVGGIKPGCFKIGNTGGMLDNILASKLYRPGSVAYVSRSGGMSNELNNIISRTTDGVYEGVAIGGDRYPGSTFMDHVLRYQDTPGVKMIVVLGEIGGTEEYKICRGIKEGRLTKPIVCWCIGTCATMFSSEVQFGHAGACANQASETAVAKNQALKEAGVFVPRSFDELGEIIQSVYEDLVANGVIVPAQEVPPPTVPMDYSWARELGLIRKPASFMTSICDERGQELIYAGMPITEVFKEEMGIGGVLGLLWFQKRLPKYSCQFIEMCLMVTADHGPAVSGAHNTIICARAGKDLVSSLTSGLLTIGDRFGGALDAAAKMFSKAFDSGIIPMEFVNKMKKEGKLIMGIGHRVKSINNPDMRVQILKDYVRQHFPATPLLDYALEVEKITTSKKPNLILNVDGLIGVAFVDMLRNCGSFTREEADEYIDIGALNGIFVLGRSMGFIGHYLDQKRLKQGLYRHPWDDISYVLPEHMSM

[3] = rats, cited from earlier work
[4] = in vivo; cited from earlier work
[5] = free acid converts to lactone; cited from earlier work
[6] = solubility (product specification); assay type: physicochemical
[7] = stability of the product in solid state and in aqueous solution; assay type: physicochemical
Method: The stability of the product was evaluated in solid state and in aqueous solution in temperature and humidity conditions as specified below. The following parameters of the product were considered: physical appearance, specific rotation, HCA content by HPLC, lactone content by HPLC. […]
b) 37°±2° C. and 75%±2 relative humidity c) 45°±2° C. and 75%±2 relative humidity
2. In solution form (5% in water)

O=C(O)CC(O)(C(=O)O)C(O)C(=O)O (centres unmarked) [HCA, hydroxycitric acid]
rate of gluconeogenesis from lactate or alanine [1]: approximately doubled | Ki ([2]; competitive inhibition, read-out: Ki, competitive inhibitor of citrate lyase): 0.15 µM | affinity of the enzyme for HCA versus affinity for citric acid ([2]; relative to citric acid): over a hundred times greater | less weight gained than the controls ([3]; 80 day study period): 78% | net reduction in food consumption ([3]; 80 day study period): 4% | food consumption suppressed ([3]; HCA 1% or more of the diet): ≥ 10% | brain uptake [4]: negligible | stability of the form [5]: not stable

potassium hydroxy citrate [CITRIN®-K]
Solubility ([6]; citrate): Soluble in water, acids and aqueous; also recorded: alcohols. Insoluble in solvents like | Solubility ([6]; listed as potassium hydroxy citrate): water soluble | stable under normal storage conditions ([7]; extrapolated from 90 day stress results): about 5 years | stable under stress conditions ([7]; higher temperature and higher humidity, solid state and 5% in water): ≥ 90 days

O=C1C[C@@](O)(C(=O)O)[C@@H](C(=O)O)O1 [HCA in lactone form, hydroxy citric acid lactone]
inhibiting the citrate lyase ([2]; lactone form): inactive, or less active | stability of the form [5]: stable

Reference: patent publication US6770782B1, “Process for the production of potassium hydroxy citric acid, and compositions containing the potassium hydroxy citric acid” (Sabinsa Corporation, priority 1995, dated 2004)
